ChEMBL document CHEMBL5046279, “Discovery of a Partial Glucokinase Activator Clinical Candidate: Diethyl ((3-(3-((5-(Azetidine-1-carbonyl)pyrazin-2-yl)oxy)-5-isopropoxybenzamido)-1H-pyrazol-1-yl)methyl)phosphonate (BMS-820132)” (J Med Chem, 2022)
Values after ≈ are worked out from the molar mass of the structure shown.

Experiments:
[1] = AUC (0 to 24 hrs) in Sprague-Dawley rat at 2.5 mg/kg, iv measured upto 24 hrs by LC-MS/MS analysis; assay type: ADME, organism-based; set-up: route intravenous, dose 2.5 mg/kg, time <=24; conditions: in vivo
[2] = AUC (0 to 24 hrs) in cynomolgus monkey at 3 mg/kg, po measured upto 24 hrs; assay type: ADME, organism-based, Macaca fascicularis; set-up: route oral, dose 3 mg/kg, time <=24; conditions: in vivo
[3] = Microsomal stability in human liver microsomes assessed as parent compound remaining at 0.5 uM measured after 10 mins in presence of NADPH; assay type: ADME, Microsome; conditions: read-out: Stability
[4] = Cmax in Sprague-Dawley rat at 5 mg/kg, po measured upto 24 hrs by LC-MS/MS analysis; assay type: ADME, organism-based; set-up: route oral, dose 5 mg/kg, time <=24; conditions: in vivo
[5] = Cmax in cynomolgus monkey at 3 mg/kg, po measured upto 24 hrs; assay type: ADME, organism-based, Macaca fascicularis; set-up: route oral, dose 3 mg/kg, time <=24; conditions: in vivo
[6] = Tmax in Sprague-Dawley rat at 5 mg/kg, po measured upto 24 hrs by LC-MS/MS analysis; assay type: ADME, organism-based; conditions: in vivo
[7] = Tmax in cynomolgus monkey at 3 mg/kg, po measured upto 24 hrs; assay type: ADME, organism-based, Macaca fascicularis; conditions: in vivo
[8] = Half life in Sprague-Dawley rat at 2.5 mg/kg, po measured upto 24 hrs by LC-MS/MS analysis; assay type: ADME, organism-based; conditions: in vivo
[9] = Volume of distribution at steady state in Sprague-Dawley rat at 2.5 mg/kg, iv measured upto 24 hrs by LC-MS/MS analysis; assay type: ADME, organism-based; conditions: in vivo, read-out: Vdss
[10] = Systemic plasma clearance in CD1 mouse at 2.5 mg/kg, iv measured upto 24 hrs by LC-MS/MS analysis; assay type: ADME, organism-based
[11] = Systemic plasma clearance in Sprague-Dawley rat at 2.5 mg/kg, iv measured upto 24 hrs by LC-MS/MS analysis; assay type: ADME, organism-based
[12] = Systemic plasma clearance in Beagle dog at 3 mg/kg, iv measured upto 24 hrs; assay type: ADME, organism-based, Canis lupus familiaris
[13] = Oral bioavailability in cynomolgus monkey at 3 mg/kg measured upto 24 hrs; assay type: ADME, organism-based, Macaca fascicularis; conditions: in vivo
[14] = AUC (0 to 24 hrs) in CD1 mouse at 2.5 mg/kg, iv measured upto 24 hrs by LC-MS/MS analysis; assay type: ADME, organism-based; set-up: route intravenous, dose 2.5 mg/kg, time <=24; conditions: in vivo
[15] = AUC (0 to 24 hrs) in Sprague-Dawley rat at 5 mg/kg, po measured upto 24 hrs by LC-MS/MS analysis; assay type: ADME, organism-based; set-up: route oral, dose 5 mg/kg, time <=24; conditions: in vivo
[16] = AUC (0 to 24 hrs) in Beagle dog at 3 mg/kg, po measured upto 24 hrs; assay type: ADME, organism-based, Canis lupus familiaris; set-up: route oral, dose 3 mg/kg, time <=24; conditions: in vivo
Cytochrome P450 2C8 = target: T1, Cytochrome P450 2C8 (Homo sapiens, UniProt P10632); experiment: Inhibition of CYP2C8 (unknown origin); assay type: ADME
T1 sequence (P10632 whole entry): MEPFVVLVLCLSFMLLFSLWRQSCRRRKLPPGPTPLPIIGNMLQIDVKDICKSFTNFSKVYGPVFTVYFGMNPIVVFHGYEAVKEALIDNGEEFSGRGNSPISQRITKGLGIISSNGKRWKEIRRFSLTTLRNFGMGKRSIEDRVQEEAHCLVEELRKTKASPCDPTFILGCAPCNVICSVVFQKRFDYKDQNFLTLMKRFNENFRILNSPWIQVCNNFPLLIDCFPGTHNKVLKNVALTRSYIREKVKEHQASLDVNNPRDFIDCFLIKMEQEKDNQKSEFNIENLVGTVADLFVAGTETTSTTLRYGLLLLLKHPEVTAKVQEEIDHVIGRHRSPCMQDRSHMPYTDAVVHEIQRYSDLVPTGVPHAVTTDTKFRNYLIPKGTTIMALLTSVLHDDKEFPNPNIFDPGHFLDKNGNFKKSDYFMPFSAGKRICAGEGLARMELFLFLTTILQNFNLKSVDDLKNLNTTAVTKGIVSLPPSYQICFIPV

[17] = target: ATP-dependent translocase ABCB1 (Homo sapiens, UniProt P08183); experiment: Inhibition of P-gp transporter (unknown origin)
Chain of ATP-dependent translocase ABCB1 (P08183 whole entry): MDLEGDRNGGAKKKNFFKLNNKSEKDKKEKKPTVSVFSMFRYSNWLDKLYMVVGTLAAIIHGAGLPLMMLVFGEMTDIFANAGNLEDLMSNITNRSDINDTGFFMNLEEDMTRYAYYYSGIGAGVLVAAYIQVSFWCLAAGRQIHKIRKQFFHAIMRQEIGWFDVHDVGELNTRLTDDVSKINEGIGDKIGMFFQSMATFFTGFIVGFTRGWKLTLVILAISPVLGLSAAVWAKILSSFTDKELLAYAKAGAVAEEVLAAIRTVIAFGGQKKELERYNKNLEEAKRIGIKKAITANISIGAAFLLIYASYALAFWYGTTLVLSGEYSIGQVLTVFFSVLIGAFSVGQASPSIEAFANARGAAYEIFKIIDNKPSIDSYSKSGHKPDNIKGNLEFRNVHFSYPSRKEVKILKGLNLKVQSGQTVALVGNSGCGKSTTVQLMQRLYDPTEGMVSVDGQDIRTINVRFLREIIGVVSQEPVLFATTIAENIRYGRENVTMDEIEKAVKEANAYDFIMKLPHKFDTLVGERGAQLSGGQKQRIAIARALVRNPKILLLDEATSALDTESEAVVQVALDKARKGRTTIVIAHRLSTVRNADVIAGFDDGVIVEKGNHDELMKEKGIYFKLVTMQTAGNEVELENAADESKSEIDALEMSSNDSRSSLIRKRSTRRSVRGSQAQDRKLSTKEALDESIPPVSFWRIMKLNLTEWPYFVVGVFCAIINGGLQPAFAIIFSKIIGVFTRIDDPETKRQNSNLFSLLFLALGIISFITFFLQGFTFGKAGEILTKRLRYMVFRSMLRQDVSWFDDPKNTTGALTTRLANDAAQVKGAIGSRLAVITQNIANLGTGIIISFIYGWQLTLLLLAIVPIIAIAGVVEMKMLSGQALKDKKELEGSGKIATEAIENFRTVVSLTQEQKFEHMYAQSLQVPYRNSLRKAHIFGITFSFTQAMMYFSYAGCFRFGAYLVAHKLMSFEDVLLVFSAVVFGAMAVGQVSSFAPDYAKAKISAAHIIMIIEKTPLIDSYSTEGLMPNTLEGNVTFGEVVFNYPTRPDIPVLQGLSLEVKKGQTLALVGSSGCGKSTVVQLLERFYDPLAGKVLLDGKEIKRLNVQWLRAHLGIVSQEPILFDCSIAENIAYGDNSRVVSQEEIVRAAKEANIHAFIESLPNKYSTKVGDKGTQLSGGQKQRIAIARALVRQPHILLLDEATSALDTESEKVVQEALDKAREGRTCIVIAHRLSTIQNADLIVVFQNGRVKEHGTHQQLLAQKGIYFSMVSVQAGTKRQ

[18] = target: T2, Nuclear receptor subfamily 1 group I member 2 (Homo sapiens, UniProt O75469); experiment: Induction of human PXR upto 50 uM
T2 sequence (O75469 whole entry): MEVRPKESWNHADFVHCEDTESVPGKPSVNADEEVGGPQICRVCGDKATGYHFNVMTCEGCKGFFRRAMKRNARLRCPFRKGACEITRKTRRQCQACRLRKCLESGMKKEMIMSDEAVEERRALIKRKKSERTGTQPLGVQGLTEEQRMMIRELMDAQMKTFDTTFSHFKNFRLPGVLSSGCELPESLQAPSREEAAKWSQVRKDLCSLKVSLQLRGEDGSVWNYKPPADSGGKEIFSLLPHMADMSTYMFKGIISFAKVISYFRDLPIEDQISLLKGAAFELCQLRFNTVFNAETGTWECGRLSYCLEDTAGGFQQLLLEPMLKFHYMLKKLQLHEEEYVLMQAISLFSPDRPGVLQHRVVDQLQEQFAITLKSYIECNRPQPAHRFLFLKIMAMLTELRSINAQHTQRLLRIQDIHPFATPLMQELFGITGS

L-type calcium channel = experiment: Inhibition of L-type calcium channel (unknown origin) at 10 uM by patch clamp assay relative to control; assay type: toxicity; conditions: human
Salmonella typhimurium [19] = experiment: Mutagenicity in Salmonella typhimurium TA98 at 5000 ug/plate in presence of S9 fraction by Ames test; assay type: toxicity, organism-based; conditions: salmonella enterica subsp. enterica serovar typhimurium, dose 5000 µg
Salmonella typhimurium [20] = experiment: Mutagenicity in Salmonella typhimurium TA98 at 5000 ug/plate in absence of S9 fraction by Ames test; assay type: toxicity, organism-based; conditions: salmonella enterica subsp. enterica serovar typhimurium; dose 5000 µg
Escherichia coli = experiment: Mutagenicity in Escherichia coli WP2 uvrA at 5000 ug/plate in absence of S9 fraction by Ames test; assay type: toxicity, organism-based
CHO = experiment: Mutagenicity in CHO cells; assay type: toxicity, cell-based, Cricetulus griseus; conditions: chinese hamster
[21] = Phototoxicity in BALB/c mouse 3T3 fibroblasts; assay type: toxicity, cell-based
Mus musculus [22] = experiment: Anti-hyperglycemic activity in C57BL/6J DIO mouse assessed as reduction in plasma glucose level at 3 umol/kg measured at 1 hr post dose on day 1 by OGTT; assay type: functional; set-up: scale not given: the % may be the effect or the level left; conditions: dose 3 µM/Kg, at 3 µmol/kg
Mus musculus [23] = experiment: Anti-hyperglycemic activity in C57BL/6J DIO mouse assessed as reduction in plasma glucose level at 3 umol/kg, po qd measured on day 14 by OGTT; assay type: functional; set-up: scale not given: the % may be the effect or the level left; conditions: dose 3 µM/Kg; time 24 hrs; at 3 µmol/kg
Mus musculus [24] = experiment: Anti-hyperglycemic activity in C57BL/6J DIO mouse assessed as reduction in plasma glucose AUC at 3 umol/kg, po measured after 120 mins by OGTT; assay type: functional; set-up: scale not given: the % may be the effect or the level left; conditions: dose 3 µM/Kg, 2 h, at 3 µmol/kg
Mus musculus [25] = experiment: Anti-hyperglycemic activity in C57BL/6J DIO mouse assessed as reduction in plasma glucose AUC at 30 umol/kg, po measured after 120 mins by OGTT; assay type: functional; set-up: scale not given: the % may be the effect or the level left; conditions: dose 30 µM/Kg, 2 h, at 30 µmol/kg
Mus musculus [26] = experiment: Anti-hyperglycemic activity in C57BL/6J DIO mouse assessed as reduction in plasma glucose level at 30 umol/kg measured after 14 days; assay type: functional; set-up: scale not given: the % may be the effect or the level left; conditions: dose 30 µM/Kg; time 14 day; at 30 µmol/kg
[27] = Aqueous solubility of the compound at pH 6.5 using crystaline form of sample; assay type: physicochemical
[28] = Permeability of compound at pH >= 5.5 by PAMPA assay; assay type: ADME; conditions: read-out: permeability
[29] = Protein binding in human serum; assay type: ADME, cell-free; conditions: read-out: PB (converted)

CCOP(=O)(Cn1ccc(NC(=O)c2cc(Oc3cnc(C(=O)N4CCC4)cn3)cc(OC(C)C)c2)n1)OCC
AUC(0-t) [1]: 16.6 µM·h | AUC(0-t) [2]: 0.57 µM·h | remaining at 10 min, 0.5 µM [3]: 96% | Cmax [4]: 13 µM | Cmax [5]: 0.38 µM | Tmax [6]: 54 min | Tmax [7]: 78 min | half-life [8]: 54 min | Vd [9]: 0.3 L/kg | clearance [10]: 2.9 mL/min/kg | clearance [11]: 4.4 mL/min/kg | clearance [12]: 7.2 mL/min/kg | bioavailability [13]: 15% | AUC(0-t) [14]: 24.9 µM·h | AUC(0-t) [15]: 29.5 µM·h | AUC(0-t) [16]: 8 µM·h | IC50 (Cytochrome P450 2C8): 7.7 µM | IC50 [17]: 55 µM | Activity [18]: Not Active | inhibition at 10 µM (L-type calcium channel): 13% | Activity (Salmonella typhimurium [19]): Non-Toxic | Activity (Salmonella typhimurium [20]): Non-Toxic | Activity (Escherichia coli): Non-Toxic | Activity (CHO): Toxic | Activity [21]: Toxic | Activity (Mus musculus [22]): -32% | Activity (Mus musculus [23]): -16% | Activity (Mus musculus [24]): -31% | Activity (Mus musculus [25]): -59% | Activity (Mus musculus [26]): -63% | solubility [27]: 10 µg/mL (≈ 17.5 µM) | Papp [28]: > 40 ×10⁻⁶ cm/s | fraction unbound [29]: 0.054
